From PubChem BioAssay (NCI)
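Following 48 hours of exposure in 96-well plates, responses at five concentrations were used to interpolate endpoints linearly. TGI denotes the concentration required for complete inhibition of growth.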

Legend:
Experiment in all cases: NCI anticancer screen, dose series, 48 h
[1] = system: IGROV1 ovarian
[2] = system: SNB-78 CNS
[3] = system: SF-295 CNS
[4] = system: SK-MEL-28 melanoma
[5] = system: SNB-19 CNS
[6] = system: 786-0 renal
[7] = system: SF-539 CNS
[8] = system: LXFL 529 NSCLC
[9] = system: M19-MEL melanoma
[10] = system: KM12 colon
[11] = system: SW-620 colon
[12] = system: UACC-62 melanoma
[13] = system: SN12C renal
[14] = system: HOP-92 NSCLC
[15] = system: HL-60(TB) leukemia
[16] = system: K-562 leukemia
[17] = system: A549 NSCLC
[18] = system: KM20L2 colon
[19] = system: NCI-H226 lung
[20] = system: DMS 273 small cell lung
[21] = system: DLD-1 colon
[22] = system: U251 CNS
[23] = system: ACHN renal
[24] = system: SK-OV-3 ovarian
[25] = system: HT29 colon
[26] = system: SR leukemia
[27] = system: RPMI-8226 leukemia
[28] = system: NCI-H522 lung
[29] = system: XF 498 CNS
[30] = system: TK-10 renal
[31] = system: NCI-H23 lung
[32] = system: MALME-3M melanoma
[33] = system: MOLT-4 leukemia
[34] = system: OVCAR-3 ovarian
[35] = system: CCRF-CEM leukemia
[36] = system: SNB-75 CNS
[37] = system: HCT-116 colon
[38] = system: UO-31 renal
[39] = system: CAKI-1 renal
[40] = system: UACC-257 melanoma
[41] = system: SF-268 CNS
[42] = system: HCT-15 colon
[43] = system: EKVX NSCLC
[44] = system: RXF-631 renal
[45] = system: SK-MEL-2 melanoma
[46] = system: M14 melanoma
[47] = system: LOX IMVI melanoma
[48] = system: NCI-H460 lung
[49] = system: COLO 205 colon
[50] = system: OVCAR-4 ovarian
[51] = system: RXF 393 renal
[52] = system: OVCAR-8 ovarian
[53] = system: HCC-2998 colon
[54] = system: SK-MEL-5 melanoma
[55] = system: DMS 114 small cell lung
[56] = system: OVCAR-5 ovarian
[57] = system: HOP-18 NSCLC
[58] = system: HOP-62 NSCLC
[59] = system: A498 renal

Measured: TGI

CC(C)=CC(=O)CC(=O)C(=O)Nc1ccc(C)c(C)c1
> 100 µM: [1] | [2] | [3] | [4] | [5] | [6] | [7] | [8] | [9] | [10] | [11] | [12] | [13] | [14] | [15] | [16] | [17] | [18] | [19] | [20] | [21] | [22] | [23] | [24] | [25] | [26] | [27] | [28] | [29] | [30] | [31] | [32] | [33] | [34] | [35] | [36] | [37] | [38] | [39] | [40] | [41] | [42] | [43] | [44] | [45] | [46] | [47]

FC(F)(F)P1C2C=CC(CC2)C1(F)F (configuration not stated)
> 100 µM: [1] | [2] | [3] | [4] | [48] | [5] | [6] | [7] | [8] | [9] | [49] | [10] | [11] | [12] | [13] | [50] | [51] | [15] | [16] | [17] | [52] | [18] | [19] | [53] | [20] | [54] | [21] | [22] | [23] | [24] | [55] | [25] | [27] | [28] | [56] | [29] | [30] | [31] | [32] | [33] | [57] | [35] | [36] | [37] | [58] | [38] | [39] | [40] | [59] | [41] | [42] | [43] | [45] | [46] | [47]
